The text below walks through data of patent US6291530A, “Aryl-substituted acrylamides with Leukotriene B4 (LTB-4) receptor antagonist activity” (Novartis AG, priority 1999, dated 2001).

pIC50: −log10 of the molar value.

Assay [1] has as its system arachidonic acid-induced mouse ear inflammation. The assay is described as follows: Arachidonic acid-induced mouse ear inflammation model. In kind it is in vivo. As to the method: The methodology used is essentially that described by Young et al., J. Invest. Dermatol. 82, 367-371 (1984). Female mice (A/J, Jakson Labs., Bar Harbor, Me.) weighing 20 gm are divided into groups consisting of six mice per treatment group. They are fasted overnight. Arachidonic acid (2 mg in 15 μl acetone) (Sigma, St Louis, Mo.) is applied to the inner surface of the right ear. The left ear received 15 μl of acetone. […] […] Edema is determined by subtracting the weight of the left ear punch from that of the right ear. As the marker for neutrophil infiltration, myeloperoxidase activity is measured as described by Bradley et al., J. Invest. Dermatol., Vol. 78, p. 206 (1982). The right ear punches from the both the vehicle and compound treated groups are used. The percentage of inhibition is calculated by comparing the myeloperoxidase activity of the compound treated groups with those of the vehicle treated group.

The next assay deals with T1, LTB-4 receptor (Homo sapiens, UniProt Q15722).
T1 construct: to intact human neutrophils; endogenous in cells; host or cells: intact neutrophils prepared from human venous blood
T1 sequence (Q15722 whole entry): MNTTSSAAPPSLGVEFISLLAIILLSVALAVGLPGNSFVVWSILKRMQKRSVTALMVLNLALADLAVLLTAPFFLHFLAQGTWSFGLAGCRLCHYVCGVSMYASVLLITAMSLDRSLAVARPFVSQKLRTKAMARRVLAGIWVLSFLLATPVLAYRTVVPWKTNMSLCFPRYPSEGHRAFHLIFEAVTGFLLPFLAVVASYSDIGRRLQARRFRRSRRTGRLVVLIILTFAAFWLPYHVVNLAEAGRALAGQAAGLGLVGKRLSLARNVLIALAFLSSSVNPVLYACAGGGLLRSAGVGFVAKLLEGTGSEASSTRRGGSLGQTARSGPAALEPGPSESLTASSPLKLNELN
The assay can be described thus: LTB-4 receptor binding assay: binding of [H^3]-LTB-4 to intact human neutrophils. Particulars: [H^3]-LTB-4, intact human neutrophils. As to the method: LTB-4 receptor binding is dete mined in the following assay involving receptor binding of [H^3 ]-LTB-4 to intact human neutrophils.
(§1) LTB-4 is purchased as a solution in either ethanol or DMSO (Biomol, Plymouth Meeting, Pa.) and diluted into Hank's balanced Salt Solution (HBSS) before use. For in vitro tests, test compounds are dissolved in DMSO to produce stock solution of 10 mM. Dilutions are made so that the final concentration of DMSO is 0.35%.
Neutrophils are prepared from […] human venous blood. Blood (25 ml) is mixed with HESPAN (15 ml)(DuPont, Wilmington, Del.) and allowed to stand at room temperature for 40 minutes. The supernatant is removed and centrifuged for 10 minutes at 400×g. The resulting pellet is resuspended in phosphate-buffered saline without calcium and magnesium (GIBCO, Grand Islands N.Y.). Thirty-five ml of the resuspended cells is layered over 15 ml of Ficoll-Paque (Sigma, St Louis, Mo.) and then centrifuged for 15 minutes at 420×g. The resulting cell pllet is resuspended in 10 ml of phosphate-buffered saline without calcium and magnesium. Twenty-five ml of deionized water are added to the suspension for 20 seconds followed by the same volume of buffer at twice the normal concentration. The suspension is centrifuged for 5 minutes at 200×g,and the pellet resuspended in Hank's Balanced Salt Solution (HBSS).
Binding of [H^3 ]-LTB-4 to neutrophils is measured as described by Gorman and Lin, Methods Enzymol. 141: 372-378 (1987) and Jackson et al., J. Pharmacol.Exp. Ther., Vol. 262, p. 80 (1992). Intact human ntutrophils (3×106) are added to HBSS containing 0.5 nM [H^3 ]-LTB-4 (specific activity 32 Ci/mmol, DuPont-NEN, Boston, Mass.) and compound (final volume 0.5 ml). After incubating for 20 minutes at 0° C., the bound radioactivity is collected on Whatman GF/C filters by vacuum filtration using a Brandel harvester. The filters are washed twice with ice cold HBSS. Filters are counted using Formula-989 scintillation cocktail (DuPont-NEN, Boston, Mass.). Non-specific binding is determined in the presence of 300 nM LTB-4 (Biomol Res. Labs, Plymouth Meeting, Pa.).

Assay [2] deals with LTB-4-induced intracellular calcium rise in human neutrophils. The assay is described as follows: Inhibition of the LTB-4-induced intracellular calcium rise in human neutrophils. In kind it is cell-based. Particulars: Neutrophil, read-out: Concentration at which calcium rise is inhibited. Here is the method: as §1
Inhibition of LTB-4 is determined by measuring the inhibition of the LTB-4-induced intracellular calcium rise in human neutrophils. Increases in intracellular Ca++ are measured as described by Seligmann et al., Agents and Actions, Vol. 21, p. 375 (1987). Neutrophils are purified from citrated human venous blood by sedimentation in HESPAN as described above. Neutrophils are isolated from the resulting pellet by centrifugal elutriation (Berkow et al., J. Lab. Clin. Med., Vol. 104, p. 698, 1984). Except were noted the neutrophils are incubated with acetoxymetbyl ester of Fura-2 (0.2 μM)(Molecular Probes Inc.) for 30 minutes at 37° C. in HEPES-buffered Hank's solution containing Ca++ and Mg++. The Fura-2 loaded cells are washed and stored on ice at a concentration of 2×10^6 cells/ml in 10 mM HEPES-buffered HBSS without Ca++ and Mg++. Fifteen minutes before assay, 1.5 ml of the cell suspension is mixed with 10 μl of 0.15 M Ca++ and 0.15 M Mg++ by stirring at 37° C. Compounds are added 40 seconds before the addition of 1 nM LTB-4. The change in fluorescence was followed using a DMX 1000 spectrofluorometer (SLM-Aminco Instruments, Urbana Ill.).

[3] abbreviates: 3 mg/Kg p.o., 1.5 hours post administration.
[4] abbreviates: 10 mg/Kg p.o., 18 hours post administration.

Consider `CCN(CC)C(=O)/C=C(\C)c1ccc(OCc2c(F)cccc2F)c(CC(=O)O)c1` [Example 8a, (E)-[5-(2-diethylcarbamoyl-1-methyl-vinyl)-2-(2,6-difluorobenzyloxy)-phenyl]-acetic acid], for which the Inhibition of edema entry in assay [1] (setting [3]) and in assay [1] (setting [4]) was “inhibit” in each case. Besides, the “Inhibition of myeloperoxidase activity” value in assay [1] (setting [3]) and in assay [1] (setting [4]) was “inhibit” throughout. Further, the pIC50 at LTB-4 receptor was around 7.06; in assay [2] it was around 7.66.

Consider `CCN(CC)C(=O)/C=C(\C)c1ccc(OC(C)c2ccccc2)c(CC(=O)O)c1` (stereo not drawn) [Example 8b, (E)-[5(2-diethylcarbamoyl-1-methylvinyl)-2-(1-phenyl-ethoxy)-phenyl]-acetic acid], for which the Inhibition of edema result in assay [1] (setting [3]) and in assay [1] (setting [4]) was “inhibit” throughout. Besides, the “Inhibition of myeloperoxidase activity” value in assay [1] (setting [3]) and in assay [1] (setting [4]) was “inhibit” each time. Moreover, the pIC50 at LTB-4 receptor was around 7.13; in assay [2], around 8.10.

Consider `CCN(CC)C(=O)/C=C(\C)c1ccc(OCc2c(F)cccc2F)c(OCC(=O)O)c1` [Example 2y, (E)-[5-(2-Diethylcarbamoyl-1-methylvinyl)-2-(2,6-difluorobenzyloxy)-phenoxy]-acetic acid], for which the Inhibition of edema result in assay [1] (setting [3]) and in assay [1] (setting [4]) was “inhibit” throughout. Also, the “Inhibition of myeloperoxidase activity” value in assay [1] (setting [3]) and in assay [1] (setting [4]) was “inhibit” each time. The pIC50 on LTB-4 receptor is around 7.32; in assay [2], around 7.74.
